According to US9670147B2, “Antioxidant inflammation modulators: oleanolic acid derivatives with amino and other modifications at C-17” (REATA PHARMACEUTICALS, INC., priority 2008, dated 2017):
pIC50: −log10 of the molar value.

Columns and labels:
[1] = system: RAW264.7 macrophages; test: Cell viability, WST-1 reagent; type: cell-based, mouse; conditions: Mus musculus, 2 h pre-treatment, then 20 ng/ml IFNγ for 24 hours
Procedure: (§1) FIGS. 1-34. Inhibition of NO Production. RAW264.7 macrophages were pre-treated with DMSO or drugs at various concentrations (nM) for 2 hours, then treated with 20 ng/ml IFNγ for 24 hours. NO concentration in media was determined using the Griess reagent system; cell viability was determined using WST-1 reagent. FIGS. 49-52. Inhibition of NO Production. RAW264.7 macrophages were pre-treated with DMSO or drugs at various concentrations (nM) for 2 hours, then treated with 20 ng/ml IFNγ for 24 hours. NO concentration in media was determined using the Griess reagent system; cell viability was determined using WST-1 reagent. RAW264.7 macrophages were pre-treated with DMSO or drugs for 2 hours, then treated with recombinant mouse IFNγ (Sigma) for 24 hours. NO concentration in media was determined using the Griess reagent system (Promega). Cell viability was determined using WST-1 reagent (Roche).

[2] = system: IFNγ-induced NO production in RAW264.7 macrophages; test: Suppression of IFNγ-induced NO production (Griess reagent); type: cell-based, mouse; conditions: Mus musculus, 2 h pre-treatment, then 20 ng/ml IFNγ for 24 hours
Procedure: as §1

Structure (SMILES) | pIC50 [1] | pIC50 [2]
CC1(C)CC[C@]2(NC(=O)Nc3ccc(O)cc3)CC[C@]3(C)[C@H](C(=O)C=C4[C@@]5(C)C=C(C#N)C(=O)C(C)(C)[C@@H]5CC[C@]43C)[C@@H]2C1 [Compound 63148, 1-((4aS,6aR,6bS,8aR,12aS,14aR,14bS)-11-cyano-2,2,6a,6b,9,9,12a-heptamethyl-10,14-dioxo-1,2,3,4,4a,5,6,6a,6b,7,8,8a,9,10,12a,14,14a,14b-octadecahydropicen-4a-yl)-3-(4-hydroxyphenyl)urea] | < 6.70 | ~7.60
CCOC(=O)N[C@]12CCC(C)(C)C[C@H]1[C@H]1C(=O)C=C3[C@@]4(C)C=C(C#N)C(=O)C(C)(C)[C@@H]4CC[C@@]3(C)[C@]1(C)CC2 [Compound 63168, ethyl-(4aS,6aR,6bS,8aR,12aS,14aR,14bS)-11-cyano-2,2,6a,6b,9,9,12a-heptamethyl-10,14-dioxo-1,2,3,4,4a,5,6,6a,6b,7,8,8a,9,10,12a,14,14a,14b-octadecahydropicen-4a-ylcarbamate] | 6.82 | 8.49
CC(=O)N[C@]12CCC(C)(C)C[C@H]1[C@H]1C(=O)C=C3[C@@]4(C)C=C(C#N)C(=O)C(C)(C)[C@@H]4CC[C@@]3(C)[C@]1(C)CC2 [Compound 63170, N-((4aS,6aR,6bS,8aR,12aS,14aR,14bS)-11-cyano-2,2,6a,6b,9,9,12a-heptamethyl-10,14-dioxo-1,2,3,4,4a,5,6,6a,6b,7,8,8a,9,10,12a,14,14a,14b-octadecahydropicen-4a-yl)acetamide] | < 6.70 | 7.97
CC1(C)CC[C@]2(NC(=O)C(F)(F)F)CC[C@]3(C)[C@H](C(=O)C=C4[C@@]5(C)C=C(C#N)C(=O)C(C)(C)[C@@H]5CC[C@]43C)[C@@H]2C1 [Compound 63171, N-((4aS,6aR,6bS,8aR,12aS,14aR,14bS)-11-cyano-2,2,6a,6b,9,9,12a-heptamethyl-10,14-dioxo-1,2,3,4,4a,5,6,6a,6b,7,8,8a,9,10,12a,14,14a,14b-octadecahydropicen-4a-yl)-2,2,2-trifluoroacetamide] | 7.05 | 7.92
CCNC(=O)N[C@]12CCC(C)(C)C[C@H]1[C@H]1C(=O)C=C3[C@@]4(C)C=C(C#N)C(=O)C(C)(C)[C@@H]4CC[C@@]3(C)[C@]1(C)CC2 [Compound 63173, 1-((4aS,6aR,6bS,8aR,12aS,14aR,14bS)-11-cyano-2,2,6a,6b,9,9,12a-heptamethyl-10,14-dioxo-1,2,3,4,4a,5,6,6a,6b,7,8,8a,9,10,12a,14,14a,14b-octadecahydropicen-4a-yl)-3-ethylurea] | < 6.70 | 7.51
CC1(C)CC[C@]2(NC(=O)OCc3ccccc3)CC[C@]3(C)[C@H](C(=O)C=C4[C@@]5(C)C=C(C#N)C(=O)C(C)(C)[C@@H]5CC[C@]43C)[C@@H]2C1 [Compound 63174, benzyl-(4aS,6aR,6bS,8aR,12aS,14aR,14bS)-11-cyano-2,2,6a,6b,9,9,12a-heptamethyl-10,14-dioxo-1,2,3,4,4a,5,6,6a,6b,7,8,8a,9,10,12a,14,14a,14b-octadecahydropicen-4a-ylcarbamate] | 7.10 | 7.59
CC1(C)CC[C@]2(NC(N)=O)CC[C@]3(C)[C@H](C(=O)C=C4[C@@]5(C)C=C(C#N)C(=O)C(C)(C)[C@@H]5CC[C@]43C)[C@@H]2C1 [Compound 63176, 1-((4aS,6aR,6bS,8aR,12aS,14aR,14bS)-11-cyano-2,2,6a,6b,9,9,12a-heptamethyl-10,14-dioxo-1,2,3,4,4a,5,6,6a,6b,7,8,8a,9,10,12a,14,14a,14b-octadecahydropicen-4a-yl)urea] | < 6.70 | 7.00
CC1(C)CC[C@]2(NC(=O)n3cccn3)CC[C@]3(C)[C@H](C(=O)C=C4[C@@]5(C)C=C(C#N)C(=O)C(C)(C)[C@@H]5CC[C@]43C)[C@@H]2C1 [Compound 63178, N-((4aS,6aR,6bS,8aR,12aS,14aR,14bS)-11-cyano-2,2,6a,6b,9,9,12a-heptamethyl-10,14-dioxo-1,2,3,4,4a,5,6,6a,6b,7,8,8a,9,10,12a,14,14a,14b-octadecahydropicen-4a-yl)-1H-pyrazole-1-carboxamide] | 7.10 | 8.17
CC1(C)CC[C@]2(NC(=O)CC(F)(F)F)CC[C@]3(C)[C@H](C(=O)C=C4[C@@]5(C)C=C(C#N)C(=O)C(C)(C)[C@@H]5CC[C@]43C)[C@@H]2C1 [Compound 63179, N-((4aS,6aR,6bS,8aR,12aS,14aR,14bS)-11-cyano-2,2,6a,6b,9,9,12a-heptamethyl-10,14-dioxo-1,2,3,4,4a,5,6,6a,6b,7,8,8a,9,10,12a,14,14a,14b-octadecahydropicen-4a-yl)-3,3,3-trifluoropropanamide] | 7.00 | 7.80
CN(C)C(=O)N[C@]12CCC(C)(C)C[C@H]1[C@H]1C(=O)C=C3[C@@]4(C)C=C(C#N)C(=O)C(C)(C)[C@@H]4CC[C@@]3(C)[C@]1(C)CC2 [Compound 63180, 3-((4aS,6aR,6bS,8aR,12aS,14aR,14bS)-11-cyano-2,2,6a,6b,9,9,12a-heptamethyl-10,14-dioxo-1,2,3,4,4a,5,6,6a,6b,7,8,8a,9,10,12a,14,14a,14b-octadecahydropicen-4a-yl)-1,1-dimethylurea] | 6.70 | 7.87
CC1(C)CC[C@]2(NC(=O)N3CCCCC3)CC[C@]3(C)[C@H](C(=O)C=C4[C@@]5(C)C=C(C#N)C(=O)C(C)(C)[C@@H]5CC[C@]43C)[C@@H]2C1 [Compound 63181, N-((4aS,6aR,6bS,8aR,12aS,14aR,14bS)-11-cyano-2,2,6a,6b,9,9,12a-heptamethyl-10,14-dioxo-1,2,3,4,4a,5,6,6a,6b,7,8,8a,9,10,12a,14,14a,14b-octadecahydropicen-4a-yl)piperidine-1-carboxamide] | 7.12 | 8.10 to 8.40
CC1(C)CC[C@]2(NC(=O)c3ccccc3)CC[C@]3(C)[C@H](C(=O)C=C4[C@@]5(C)C=C(C#N)C(=O)C(C)(C)[C@@H]5CC[C@]43C)[C@@H]2C1 [Compound 63182, N-((4aS,6aR,6bS,8aR,12aS,14aR,14bS)-11-cyano-2,2,6a,6b,9,9,12a-heptamethyl-10,14-dioxo-1,2,3,4,4a,5,6,6a,6b,7,8,8a,9,10,12a,14,14a,14b-octadecahydropicen-4a-yl)benzamide] | 6.90 | 7.89 to 8.15
CC(C)OC(=O)N[C@]12CCC(C)(C)C[C@H]1[C@H]1C(=O)C=C3[C@@]4(C)C=C(C#N)C(=O)C(C)(C)[C@@H]4CC[C@@]3(C)[C@]1(C)CC2 [Compound 63184, isopropyl-(4aS,6aR,6bS,8aR,12aS,14aR,14bS)-11-cyano-2,2,6a,6b,9,9,12a-heptamethyl-10,14-dioxo-1,2,3,4,4a,5,6,6a,6b,7,8,8a,9,10,12a,14,14a,14b-octadecahydropicen-4a-ylcarbamate] | 7.12 | 7.84
C=CCOC(=O)N[C@]12CCC(C)(C)C[C@H]1[C@H]1C(=O)C=C3[C@@]4(C)C=C(C#N)C(=O)C(C)(C)[C@@H]4CC[C@@]3(C)[C@]1(C)CC2 [Compound 63186, allyl-(4aS,6aR,6bS,8aR,12aS,14aR,14bS)-11-cyano-2,2,6a,6b,9,9,12a-heptamethyl-10,14-dioxo-1,2,3,4,4a,5,6,6a,6b,7,8,8a,9,10,12a,14,14a,14b-octadecahydropicen-4a-ylcarbamate] | 7.00 | 8.22 to 8.52
CC1(C)CC[C@]2(NC(=O)Nc3ccccc3)CC[C@]3(C)[C@H](C(=O)C=C4[C@@]5(C)C=C(C#N)C(=O)C(C)(C)[C@@H]5CC[C@]43C)[C@@H]2C1 [Compound 63249, 1-((4aS,6aR,6bS,8aR,12aS,14aR,14bS)-11-cyano-2,2,6a,6b,9,9,12a-heptamethyl-10,14-dioxo-1,2,3,4,4a,5,6,6a,6b,7,8,8a,9,10,12a,14,14a,14b-octadecahydropicen-4a-yl)-3-phenylurea] | 7.30 | –
CC(=O)N[C@]12CCC(C)(C)C[C@H]1[C@H]1C(=O)C[C@@H]3[C@@]4(C)C=C(C#N)C(=O)C(C)(C)[C@@H]4CC[C@@]3(C)[C@]1(C)CC2 [Compound 63321, N-((4aS,6aR,6bR,8aR,12aR,12bR,14aR,14bS)-11-cyano-2,2,6a,6b,9,9,12a-heptamethyl-10,14-dioxo-1,2,3,4,4a,5,6,6a,6b,7,8,8a,9,10,12a,12b,13,14,14a,14b-icosahydropicen-4a-yl)acetamide] | – | ~7.15
CC1(C)CC[C@]2(NC(=O)C(F)(F)F)CC[C@]3(C)[C@H](C(=O)C[C@@H]4[C@@]5(C)C=C(C#N)C(=O)C(C)(C)[C@@H]5CC[C@]43C)[C@@H]2C1 [Compound 63322, N-((4aS,6aR,6bR,8aR,12aR,12bR,14aR,14bS)-11-cyano-2,2,6a,6b,9,9,12a-heptamethyl-10,14-dioxo-1,2,3,4,4a,5,6,6a,6b,7,8,8a,9,10,12a,12b,13,14,14a,14b-icosahydropicen-4a-yl)-2,2,2-trifluoroacetamide] | – | ~7.30
CNC(=O)N[C@]12CCC(C)(C)C[C@H]1[C@H]1C(=O)C[C@@H]3[C@@]4(C)C=C(C#N)C(=O)C(C)(C)[C@@H]4CC[C@@]3(C)[C@]1(C)CC2 [Compound 63327, 1-((4aS,6aR,6bR,8aR,12aR,12bR,14aR,14bS)-11-cyano-2,2,6a,6b,9,9,12a-heptamethyl-10,14-dioxo-1,2,3,4,4a,5,6,6a,6b,7,8,8a,9,10,12a,12b,13,14,14a,14b-icosahydropicen-4a-yl)-3-methylurea] | – | ~7.00
COC(=O)N[C@]12CCC(C)(C)C[C@H]1[C@H]1C(=O)C[C@@H]3[C@@]4(C)C=C(C#N)C(=O)C(C)(C)[C@@H]4CC[C@@]3(C)[C@]1(C)CC2 [Compound 63328, methyl (4aS,6aR,6bR,8aR,12aR,12bR,14aR,14bS)-11-cyano-2,2,6a,6b,9,9,12a-heptamethyl-10,14-dioxo-1,2,3,4,4a,5,6,6a,6b,7,8,8a,9,10,12a,12b,13,14,14a,14b-icosahydropicen-4a-ylcarbamate] | – | ~7.60
